Earlier results, collected in patent publication US20080057111A1 (priority 2006, published 2008).

system: severe acute respiratory syndrome (SARS) virus; conditions: recent report

| SMILES | effect on SARS virus |
| --- | --- |
| C=CCC(=NOS(=O)(=O)O)S[C@@H]1O[C@H](CO)[C@@H](O)[C@H](O)[C@H]1O (stereo in doubt) [sinigrin] | inhibitory effect |
| CC[C@H](CC[C@@H](C)[C@H]1CC[C@H]2[C@@H]3CC=C4C[C@@H](O)CC[C@]4(C)[C@H]3CC[C@]12C)C(C)C [beta-sitosterol] | inhibitory effect |
| O=c1c(-c2ccc(O)cc2)coc2cc(O)ccc12 [daidzein] | inhibitory effect |
| COc1ccc([C@@H]2CC(=O)c3c(O)cc(O)cc3O2)cc1O [hespertin] | inhibitory effect |
| OC[C@H]1O[C@@H](Oc2c[nH]c3ccccc23)[C@H](O)[C@@H](O)[C@@H]1O [indican] | inhibitory effect |
| O=C1/C(=C2\Nc3ccccc3C2=O)Nc2ccccc21 [indigo] | inhibitory effect |

system: not given; conditions: not given

| SMILES | anti-endotoxin activity in vivo |
| --- | --- |
| O=C(O)c1ccccc1 [benzoic acid] | anti-endotoxin activity |
| O=C(O)c1ccccc1O [salicylic acid] | anti-endotoxin activity |
| COc1cc(C(=O)O)cc(OC)c1O [syringic acid] | anti-endotoxin activity |
| Nc1ccccc1C(=O)O [σ-aminobenzoic acid] | anti-endotoxin activity |
